Tests used:
MMP-2 = assay: Substrate phage display with NGS: relative probability (RP) of P3-P1' tetramer clusters; type: biochemical, human; conditions: for relative probability (RP) of matching tetramer: P3-P1' tetramer matching the MS detected MMP2 cleavage sequence, RP_above_4.5; for MMP2 relative probability (RP): MMP2 tetramers from unique substrates, unrounded values; for avg_RP: MMP2 - no binning
MMP-9 = assay: as above; type: biochemical, human; conditions: for corresponding MMP9 relative probability (RP): MMP2 tetramers from unique substrates, RP of same tetramer for MMP9
[1] = MMP2, RP of matching P3-P1' tetramer, common set of MMP2-9 selectome, RP above KL threshold
[2] = RP of matching tetramer, common MMP2-9 selectome
[3] = MMP9, RP of matching P3-P1' tetramer, common set of MMP2-9 selectome
[4] = MMP9, RP of the P3-P1' tetramer matching the MS detected cleavage, RP above 4.7, substrate phage display with NGS
[5] = RP of matching tetramer, common MMP2-9 selectome, RP above KL threshold
[6] = RP of the P3-P1' tetramer cluster contained in the hexamer, 200 nM MMP-2, 2 h, 37°C, two rounds of selection
[7] = MMP9, RP of the P3-P1' tetramer contained in the hexamer substrate (substrate phage display, NGS)
[8] = RP according to MMP2, P3-P1' tetramer of unique physiologic MMP2 substrates from MEROPS
[9] = RP according to MMP9, P3-P1' tetramer of unique physiologic MMP9 substrates from MEROPS
[10] = RP of the P3-P1' tetramer, MMP2 substrate phage display/NGS, tetramers of physiologic MEROPS substrates common to MMP2 and MMP9
[11] = RP of the P3-P1' tetramer, MMP9 substrate phage display/NGS, tetramers of physiologic MEROPS substrates common to MMP2 and MMP9
[12] = average relative probability of the P3-P1' tetramer, redundant tetramers have been averaged out

Substance | relative probability (RP) (acc.to MMP2) (MMP-2; [2]) | relative probability (RP) (MMP-9; [4]) | relative probability (RP) (acc.to MMP9) (MMP-9; [5]) | relative probability (RP) (MMP-2; [6]) | relative probability (RP) (MMP-9; [7]) | further results
AINI | 8.5 | 14.08 | 14.08 |  |  | relative probability (RP) (acc.to MMP2) (MMP-2; [1]): 8.5; relative probability (RP) of matching tetramer (MMP-2): 8.5; relative probability (RP) (acc.to MMP9) (MMP-9; [3]): 14.08
GEPRGQ |  |  |  | 29.4864 | 42.1179 | 
PEQL | 12.46 | 23.26 | 23.26 |  |  | relative probability (RP) (acc.to MMP2) (MMP-2; [1]): 12.46; relative probability (RP) of matching tetramer (MMP-2): 12.46; relative probability (RP) (acc.to MMP9) (MMP-9; [3]): 23.26
PNSM | 14.95 | 27.58 | 27.58 |  |  | relative probability (RP) (acc.to MMP2) (MMP-2; [1]): 14.95; relative probability (RP) of matching tetramer (MMP-2): 14.95; relative probability (RP) (acc.to MMP9) (MMP-9; [3]): 27.58
EPVSLA |  |  |  | 32.502 | 42.3557 | 
PFGV | 6.82 | 38.95 | 38.95 |  |  | 
GPRYLM |  |  |  | 30.5447 | 44.5304 | 
SRPAEF |  |  |  | 19.4662 | 11.7405 | 
PKALPY |  |  |  | 34.4858 | 48.3581 | 
PRGVKG |  |  |  | 29.4971 | 42.1832 | 
MSAF |  |  |  |  |  | MMP2 relative probability (RP) (MMP-2): 20.9521; Relative probability (RP) rank (MMP-2; [8]): 1585; relative probability (RP) (MMP-2; [8]): 20.95; corresponding MMP9 relative probability (RP) (MMP-9): 1.271
AHNLSS |  |  |  | 23.7113 | 29.6602 | 
QQPSRL |  |  |  | 31.7732 | 39.8157 | 
TLGL | 6 | 9.79 | 9.79 |  |  | relative probability (RP) (acc.to MMP2) (MMP-2; [1]): 6; relative probability (RP) of matching tetramer (MMP-2): 6; relative probability (RP) (acc.to MMP9) (MMP-9; [3]): 9.79
PRML [P3-P1' tetramer cluster] |  |  |  |  |  | avg_RP (MMP-2; average relative probability of the tetramer, redundant tetramers averaged out): 30.5973; relative probability (RP) (MMP-9; tetramer projected onto MMP-9 cleavage sites determined by Prudova et al. (2010)): 42.29
PMALMD |  |  |  | 34.1737 | 48.9468 | 
VGKL |  |  |  |  |  | MMP2 relative probability (RP) (MMP-2): 21.0562; Relative probability (RP) rank (MMP-2; [8]): 1553; relative probability (RP) (MMP-2; [8]): 21.06; corresponding MMP9 relative probability (RP) (MMP-9): 3.141; Relative probability (RP) rank (MMP-9; [9]): 7569; relative probability (RP) (MMP-9; [9]): 3.14
VGGL | 26.45 | 9.44 | 9.44 |  |  | relative probability (RP) (acc.to MMP2) (MMP-2; [1]): 26.45; relative probability (RP) of matching tetramer (MMP-2): 26.45; relative probability (RP) (acc.to MMP9) (MMP-9; [3]): 9.44
PLRQIG |  |  |  | 11.8624 | 29.0862 | 
KPVNMT |  |  |  | 30.0312 | 44.4072 | 
PTGS |  |  |  |  |  | relative probability (RP) (acc.to MMP2) (MMP-2; [10]): 0.04; relative probability (RP) (acc.to MMP9) (MMP-9; [11]): 0.05
APGN |  |  |  |  |  | relative probability (RP) (acc.to MMP2) (MMP-2; [10]): 3.62; relative probability (RP) (acc.to MMP9) (MMP-9; [11]): 2.38
QPLEIR |  |  |  | 19.9123 | 43.9826 | 
EGPAGL |  |  |  | 36.0156 | 47.2274 | 
PSPADI |  |  |  | 23.2522 | 25.0899 | 
PRGY | 34.02 | 46.79 | 46.79 |  |  | relative probability (RP) (acc.to MMP2) (MMP-2; [1]): 34.02; relative probability (RP) of matching tetramer (MMP-2): 34.02; relative probability (RP) (acc.to MMP9) (MMP-9; [3]): 46.79
VSSL |  |  |  |  |  | avg_RP (MMP-2; [12]): 29.0891; relative probability (RP) (acc.to MMP2) (MMP-2; [1]): 29.09; relative probability (RP) of matching tetramer (MMP-2): 29.09; relative probability (RP) (acc.to MMP9) (MMP-9; [3]): 17.98
PSGD |  |  |  |  |  | relative probability (RP) (acc.to MMP2) (MMP-2; [10]): 0.16; relative probability (RP) (acc.to MMP9) (MMP-9; [11]): 0.48
LAWL | 22.04 | 19.78 | 19.78 |  |  | avg_RP (MMP-2; [12]): 22.0358; relative probability (RP) (acc.to MMP2) (MMP-2; [1]): 22.04; relative probability (RP) of matching tetramer (MMP-2): 22.04; relative probability (RP) (acc.to MMP9) (MMP-9; [3]): 19.78
PLSL | 33.53 | 48.17 | 48.17 |  |  | avg_RP (MMP-2; [12]): 33.5282

— paper PMC7932537, “Quantitative profiling of protease specificity” (PLoS Computational Biology, 2021)
